Like-named read-outs stand apart in the source and are kept apart here.
Columns and labels:
[1] = test system: NO production induced by LPS in BV2 cells; assay: Inhibition of NO production in LPS-induced BV2 microglial cells (Griess reagent); type: cell-based; conditions: compound test concentrations 3.125 to 100 μM, mean ± SD (n = 3), read-out: IC50 NO Inhibitory
Description: (§1) BV2 microglia cells were purchased from iCell Bioscience Inc. (Shanghai, China). The cells were grown at 37 °C in a humid environment with 5% CO2. In DMEM with 10% fetal bovine serum and 1% penicillin-streptomycin solution, they were maintained alive. The following assays were carried out while the cells were in the exponential growth phase (subcultured 2–3 times).
To determine how much NO is produced, the literature was consulted. Equal parts of the Griess reagent (1% sulfanilamide and 0.1% N-(1-naphthyl) ethylenediamine dihydrochloride in 2.5% phosphoric acid) were combined with the sample-treated cell culture medium for 5 min at room temperature and in the dark. It was determined that the absorbance was at 540 nm using a microplate reader. The trials were conducted simultaneously in triplicate.

BV2 microglial cells = assay: CCK8 cytotoxic activity in BV2 microglial cells; type: cell-based; conditions: Mus musculus, BV-2, CCK8, LPS 1 μg/mL 24 h, compound test concentrations 3.125 to 100 μM, read-out: IC50 Cell Viability
Description: as §1
The cytotoxic activity was assessed using the CCK8 test. In a 96-well plate, BV2 microglial cells (5 × 10^4 cells/well) were placed in each well and incubated for 12 h. After one hour with each substance, LPS (1 μg/mL) was applied to the BV2 microglia cells for an additional 24 h. The CCK8 solution was then incubated with BV2 cells for 1 h at 37 °C. The absorbance at 450 nm was measured using a plate reader (Molecular Devices, San Jose, CA, USA). The cells that had not been treated were assumed to have a 100% optical density.

IL-1β = IL-1β level in hippocampus of CUMS rats, ELISA; type: in vivo, Male Sprague-Dawley (SD) rats; conditions: after 5 weeks of therapy, HFPE, HFFE 25 mg/kg, fluoxetine 10 mg/kg
Description: (§2) The Animal Ethics Committee of Shenyang Pharmaceutical University has approved all animal testing (no. SYPU-IACUC-S2021-03-03-202). Male Sprague-Dawley (SD) rats weighing 180–200 g were supplied by Central Animal House of Shenyang Pharmaceutical University (Shenyang, China). […] They were also provided water and a regular food. Before the actual trials start, the rats should acclimate to their new environment for seven days.
(§3) A baseline test was conducted as described below before grouping. Rats were divided into five groups of 10 depending on their weight and sucrose preference. The model group, fluoxetine (10 mg/kg) group, HFPE (25 mg/kg) group, and HFFE (25 mg/kg) group were the four treatment groups using CUMS procedures. An untouchable control group was used. Based on what had been reported in the pharmacological literature the HFPE and HFFE dosages were selected. Two hours before to the daily CUMS procedure and behavioral testing, the rats received the appropriate solutions. […]
(§4) The serum and hippocampal tissue of rats were taken. […] The optical density value was calculated after the reaction by setting the microtiter plate at 450 nm. The amount of CORT in the serum and the amounts of IL-6, IL-1β, and TNF-α in the hippocampus tissue were calculated using the standard curve.

[2] = Body weight growth rate of CUMS rats; type: in vivo, Male Sprague-Dawley (SD) rats; conditions: 5 weeks, HFPE, HFFE 25 mg/kg, fluoxetine 10 mg/kg, gastric gavage
Description: as §2
as §3, with “solutions. All of the medications were administered through gastric gavage at a volume of 3 mL/kg of body weight and dissolved in sodium carboxymethylcellulose (CMC-Na) at a concentration of 0.3%. Days 76–79, 80, and 81 after the final dosage of the medication, respectively, saw the completion of the SPT, OFT, and FST.” for “solutions.”
(§5) Body weights were recorded every week. […]

CUMS rats [3] = assay: Sucrose preference test (SPT) in CUMS rats; type: in vivo, Male Sprague-Dawley (SD) rats; conditions: after five weeks of administration by gastric gavage, HFPE, HFFE 25 mg/kg, fluoxetine 10 mg/kg, model group 64.44%
Description: as §2, §3, §5
The SPT is used to evaluate rodent behavior associated with a human clinical symptom of depression by evaluating the capacity to seek pleasure. […] After that, the amount of liquids consumed was recorded. […]

CUMS rats [4] = assay: Open-field test (OFT) in CUMS rats; type: in vivo, Male Sprague-Dawley (SD) rats; conditions: 5 min test, HFPE, HFFE 25 mg/kg, fluoxetine 10 mg/kg, compared with model group
Description: as §2, §3, §5
To assess the effects of HFPE and HFFE on exploratory behavior of rats administered CUMS, OFT carried out in the same manner as literature. Each rat was placed in its own square in the center of a black box that measured 100 cm × 100 cm × 40 cm. […] Both the crossing score and the rearing score for each animal were recorded. […]

IL-6 = IL-6 level in hippocampus of CUMS rats, ELISA; type: in vivo, Male Sprague-Dawley (SD) rats; conditions: after 5 weeks of therapy, HFPE, HFFE 25 mg/kg, fluoxetine 10 mg/kg
Description: as §2, §3, §4

TNF-α = TNF-α level in hippocampus of CUMS rats, ELISA; type: in vivo, Male Sprague-Dawley (SD) rats; conditions: after 5 weeks of therapy, HFPE, HFFE 25 mg/kg, fluoxetine 10 mg/kg
Description: as §2, §3, §4

CUMS rats [5] = assay: Forced swimming test (FST) in CUMS rats; type: in vivo, Male Sprague-Dawley (SD) rats; conditions: HFPE, HFFE 25 mg/kg, fluoxetine 10 mg/kg, compared with CUMS model group
Description: as §2
as §3, with “solutions. All of the medications were administered through gastric gavage at a volume of 3 mL/kg of body weight and dissolved in sodium carboxymethylcellulose (CMC-Na) at a concentration of 0.3%.” for “solutions.”
as §5
The FST protocol was carried out as described in previous literature. […] The time the rat’s immobility duration in the last five minutes of their six-minute swim in the bucket was recorded. […]

[6] = Mus musculus, BV-2, LPS-induced BV2 cells

For `C[C@@H]1O[C@@H](OC[C@H]2O[C@@H](Oc3c(-c4ccc(O)cc4)oc4cc(O)cc(O)c4c3=O)[C@H](O[C@@H]3O[C@@H](C)[C@H](O)[C@@H](O)[C@H]3O)[C@@H](O)[C@H]2O)[C@H](O)[C@H](O)[C@H]1O` [Compound 36, kaempferol-3-O-[α-L-rhamnopyranosyl-(1→6)]-[α-L-rhamnopyranosyl-(1→2)]-β-D-galactopyranoside], the IC50 [1, 6] was greater than 100 µM and the IC50 (BV2 microglial cells) was greater than 100 µM.
With `C[C@@H]1O[C@@H](OC[C@H]2O[C@@H](Oc3c(-c4ccc(O)cc4)oc4cc(O)cc(O)c4c3=O)[C@H](O[C@@H]3O[C@@H](C)[C@H](O)[C@@H](O)[C@H]3O)[C@@H](O)[C@@H]2O)[C@H](O)[C@H](O)[C@H]1O` [Compound 37, kaempferol-3-O-[α-L-rhamnopyranosyl-(1→6)]-[α-L-rhamnopyranosyl-(1→2)]-β-D-glucopyranoside] the IC50 ([1]; LPS-induced BV2 cells) was 96.1 ± 11.6 µM, the IC50 [1, 6] was less than 100 µM and the IC50 (BV2 microglial cells) was greater than 100 µM.
`COc1ccc2c(c1)c(CC(=O)O)c(C)n2C(=O)c1ccc(Cl)cc1` [Indomethacin, indomethacin, reference compound] showed an IC50 [1, 6] of 52.6 ± 4.58 µM and an IC50 (BV2 microglial cells) greater than 100 µM.
With `CNCCC(Oc1ccc(C(F)(F)F)cc1)c1ccccc1` (centres unmarked) [fluoxetine] the “IL-1β level in hippocampus” value (IL-1β) was “obviously reduced”, the “growth rate of body weight” value [2] was “alleviate the reduction in body weight” and the sucrose preference (CUMS rats [3]) was 82.40%. For the same molecule, the “OFT rearing score (exploratory activity)” value (CUMS rats [4]) was “improved the rearing score”, the “IL-6 level in hippocampus” value (IL-6) was “obviously reduced” and the “TNF-α level in hippocampus” value (TNF-α) was “obviously reduced”. For the same molecule, the FST immobility time (CUMS rats [5]) was “reduced immobility”.

Reference: paper PMC9502271, “An Investigation of the Anti-Depressive Properties of Phenylpropanoids and Flavonoids in Hemerocallis citrina Baroni” (Molecules, 2022)
